In patent US20140200137A1, “TREATMENT OF STORED TUBERS WITH COMPOSITIONS OF ALKYL NAPHTHALENES AND HIGHER ALCOHOLS” (1,4 Group, Inc., priority 2013, published 2014):

How the values were obtained:
[1] = tested on: existing sprouts on post-dormant potatoes with peeps and sprouts extant; test: Comparison of sprout suppressing chemicals applied by thermofogging (Example VII); assay type: in vivo; conditions: for Burn “new”: newly emerged sprouts and peeps, generally less than a month; for Burn “new” / Burn “old”: thermofogging at comparable dosages; for Burn “old”: effect upon old sprouts, up to nine months old
Excerpt: Various sprout suppressing chemicals were compared for their ability to suppress existing sprouts on post-dormant potatoes with peeps and sprouts extant.
In the above table “Burn old” refers to the effect upon old sprouts, which included sprouts up to nine months old, these being generally more difficult to desiccate, while “burn new” refers to newly emerged sprouts and peeps, generally less than a month or so in existence.

potatoes [2] = conditions: in vivo; cited from earlier work
sprouts on potatoes = test: Mixtures of 1,4-DMN with octanol at various volumetric ratios, burn of sprouts (Example VIII); assay type: in vivo; set-up: key: +++: Excellent effect; ++: Very good effect; +: Good effect; —: Negligible effect; conditions: total dosage of each mixture constant
Excerpt: All mixtures provided a more rapid burn of sprouts compared with an equal dosage of octanol or 1,4-DMN alone. The 7:1 ratio of octanol to DMN gave the best results in terms of length of non-sprouting condition before nascent sprouts again appeared.

[3] = tested on: peeps and sprouts of stored potatoes; test: General observations on treatment of stored potatoes with higher alcohols and 1,4-DMN; assay type: in vivo; conditions: 24 hours after treatment all peeps and sprouts are burned
Excerpt: Higher alcohols, such as 1-octanol and 1-nonanol, are miscible with 1,4-DMN.
It has been observed that the dormancy-like effect produced upon stored potatoes by 1,4-DMN remains, at least to some degree, even as the residue of 1,4-DMN becomes undetectable. Thus, by proper timing of the last treatment of stored potatoes with 1,4-DMN and a subsequent treatment with 1-octanol, 1-nonanol or 1-hexanol, alcohols which are on the GRAS list, both the washed potatoes and any discharged wash water will have no harmful chemicals present. The action of higher alcohols, such as 1-octanol, 1-nonanol and 1-hexanol, on peeps and sprouts is rapid, so that 24 hours after treatment all peeps and sprouts are “burned.”

potatoes [4] = test: Thermofogging of 1-octanol on cold and warmer potatoes, damage to skin and flesh (Example IX); assay type: in vivo
Protocol: The 1-octanol was applied via an electrically […] thermofogger at a fog temperature within the fogger of about 500° F. to obtain a stable aerosol. The potatoes were examined about 24 hours after treatment. […] The potatoes were cut open at the dark spots. Damage to the flesh of the potatoes existed to a depth of about 5 mm to 25 mm. Potato flesh was otherwise undamaged except under the dark spots.

peeps and sprouts = test: Fogging of 1-nonanol compared with clove oil in burning peeps and sprouts (Example V); assay type: in vivo, potatoes; conditions: similar dosages
[5] = tested on: stored potatoes with white peeps showing from the eyes; test: Thermofogging of 1-nonanol on bulk stored potatoes with white peeps (Example II); assay type: in vivo; conditions: thermofogged at about 500° F., 8 ml for 2 kg of potatoes
Protocol: Stored potatoes in bulk storage were treated with 1-nonanol (n-nonyl alcohol) via a thermofogger to determine sprout inhibition. The thermofogger was operated at an aerosol chamber temperature of about 500° F. A good stable aerosol was produced. The alcohol was applied at a dosage of 8 ml for 2 kg of potatoes. The system was open so that the actual dosage reaching the potatoes was considerably less than the fogged amount. In a first bulk storage, the potatoes had white “peeps” showing from the eyes.

[6] = tested on: potatoes with sprouts averaging in excess of about 2 cm, some up to 8 cm or more; test: Thermofogging on potatoes with very long sprouts (Examples III and IV); assay type: in vivo; conditions: for kill of large sprouts: full strength
Protocol: In another test, the potatoes were treated with 1-nonanol at the same fogging temperature and dosage for the same period of time to achieve the same application dosage as in Example II. The potatoes in this storage had sprouts averaging in excess of about 2 cm in length. In this experiment, potatoes with very long sprouts, some up to 8 cm or more, were treated 1, 2, and 4 times sequentially with full strength nonanol. This “spray-paint” method was used to try to bring the total amount (rate) of nonanol up to a level capable of killing large sprouts as well as peeps . . . a necessity in commercial settings where sprouts of all sizes exist. […] While this was a small scale test, a whole storage full of potatoes in this condition would likely lead to secondary decays.
The results of Example III led to another experiment where nonanol and DMN were applied.

Compound | Burn “new” [1] | results among alcohols tested by Burton (potatoes [2]) | Burn “old” [1] | also measured
CCCCCOC(C)=O [AmylAcetate, amyl acetate] | ++ |  |  | 
CCCCCO [amyl, amyl alcohol] |  | Best results |  | 
CCCCCCCCO [1:0, octanol] |  |  |  | Length of Burn (sprouts on potatoes): +++; Rapid Burn (sprouts on potatoes): ++
CCCCCCCCO [1-Octanol, 1-octanol] | +++ |  | ++ | action on peeps and sprouts [3]: rapid; depth of damage to the flesh under the dark spots (potatoes [4]; potato, in vivo, 24 h): 5-25 mm; damage to potato skin (potatoes [4]; potatoes at about 36° F., fog about 500° F., examined about 24 hours after treatment): large dark damaged spots; injury to potato skin or flesh (potatoes [4]; potatoes held at 53° F., similar dosage, fogging temperature and rate): did not show injury to the potato skin or to its flesh
CCCCCCO [Hexanol, 1-hexanol] | ++ |  | + | action on peeps and sprouts [3]: rapid
CCCCCCO [n-hexyl, n-hexyl alcohol] |  | Worst results |  | 
CCCCCCCCCCO [1-Decanol] | ++ |  | ++ | 
CCCCCCCCCO [nonyl, nonyl alcohol] |  | Best results |  | 
CCCCC(CC)CO (centres unmarked) [2-ethyl-hexan-1-01] |  | Worst results |  | 
Cc1ccc(C)c2ccccc12 [1,4-DMN, 1,4 dimethyl naphthalene] | + |  | + | 
CCCCCCCCCO [1-Nonanol, 1-nonanol] | +++ |  | +++ | effectiveness in burning peeps and sprouts relative to clove oil (peeps and sprouts): about four times as effective as clove oil; action on peeps and sprouts [3]: rapid; damage to potato flesh adjacent the eyes [5]: without any damage to potato flesh; effect on white peeps ([5]; open system): burned to a dark color and were inactivated; desiccation of existing peeps and sprouts, ranking in the test ([1]; in vivo): most effectively desiccated existing peeps and sprouts; negative side effect observed ([6]; four sequential applications): wet, slimy, sprout rot; kill of large sprouts ([6]; four sequential applications): completely killed; kill of large sprouts ([6]; single or double applications): didn't reach a level of nonanol high enough to completely kill these sized sprouts
CCCCCCCCCCCCO [Dodecanol] | − |  | −\+ | 
